Where two headings read alike, the source gives them in different places.
Columns and labels:
[1] = target: recombinant SARS-CoV-2 Main protease (Mpro) (Severe acute respiratory syndrome coronavirus 2 (2019-nCoV) (SARS-CoV-2), UniProt P0DTD1); experiment: Cov Mpro Biochemical IC50 Assay; conditions: read-out: MPro IC50
[2] = tested on: SARS-CoV-2-NLuc; experiment: microbe, parasite or virus in culture; type: cell-based, SARS Coronavirus 2
[3] = recombinant SARS-CoV-2 Mpro 7.5 nM, fluorogenic peptide substrate 40 μM
[4] = Severe acute respiratory syndrome coronavirus, 48 h, read-out: MPro EC50
[5] = recombinant SARS-CoV-2 Mpro, fluorogenic peptide substrate
[6] = Severe acute respiratory syndrome coronavirus, 48 h; read-out: MPro EC50

In the case of `O=c1[nH]c2cc(-c3c(Cl)cccc3-c3cnn4c3CNCC4)ccc2c(=O)n1-c1cncc2ccccc12` [Example 474], the IC50 [1, 3] is reported as 14 nM and the EC50 [2, 4] is reported as 124 nM.

`N#Cc1cc(-c2cccc(Cl)c2-c2ccc3c(=O)n(-c4cncc5ccccc45)c(=O)[nH]c3c2)cnc1N1CCOCC1` [Example 277] was tested, and the IC50 [1, 5] was 124 nM and the EC50 [2, 4] was 57 nM.

With `Cc1ccncc1-n1c(=O)[nH]c2cc(-c3ccccc3Cl)sc2c1=O` [Example 216] the IC50 [1, 5] was 62.3 nM and the EC50 [2, 4] was 112 nM.

`COc1cc(-c2cc3[nH]c(=O)n(-c4cncc5ccccc45)c(=O)c3cc2OC)c(Cl)cc1F` (single isomer, unassigned) [Example 1054, 7-(2-chloro-4-fluoro-5-methoxyphenyl)-3-(isoquinolin-4-yl)-6-methoxyquinazoline-2,4(1H,3H)-dione] showed an IC50 [1, 3] of 34.6 nM and an EC50 ([2]; read-out: MPro EC50) of 15.5 nM.

Compound `CC(C)Oc1ccc(Cl)c(-c2cc3[nH]c(=O)n(-c4cncc5ccccc45)c(=O)c3s2)c1` [Example 346] has an IC50 [1, 5] of 73.5 nM and an EC50 [2, 4] of 239 nM.

For `COc1cc(-c2cc3c(s2)c(=O)n(-c2cncc4cnn(C)c24)c(=O)n3CCO)c(Cl)cc1F` [Example 1070], the IC50 [1, 3] was 19.8 nM and the EC50 [2, 4] was 30.8 nM.

`Cc1cc2ncnn2cc1-c1cc2[nH]c(=O)n(-c3cncc4ccccc34)c(=O)c2s1` [Example 15] gave an IC50 [1, 5] of 3970 nM and an EC50 [2, 4] of 25100 nM.

With `O=c1[nH]c2cc(-c3ccccc3Cl)sc2c(=O)n1-c1cncc(OCC(F)(F)F)c1` [Example 381] the IC50 [1, 5] was 5070 nM and the EC50 [2, 4] was 145 nM.

For `COc1ccc(Cl)c(-c2cc3[nH]c(=O)n(-c4cncc5ncsc45)c(=O)c3s2)c1` [Example 485], the IC50 [1, 3] was 9.6 nM and the EC50 [2, 4] was 62.6 nM.

`COc1ccc(C)c(-c2cc3[nH]c(=O)n(-c4cncc5ccccc45)c(=O)c3s2)c1` [Example 349] was tested, and the IC50 [1, 5] was 7.23 nM and the EC50 [2, 4] was 30 nM.

`O=c1[nH]c2cc(-c3ccccc3F)sc2c(=O)n1-c1cncc2ccccc12` [Example 9] gave an IC50 [1, 5] of 159 nM and an EC50 [2, 4] of 295 nM.

`COC(=O)[C@H]1C[C@@H]1c1cncc(-n2c(=O)[nH]c3cc(-c4ccccc4Cl)ccc3c2=O)c1C` [Example 126] gave an IC50 [1, 5] of over 50000 nM and an EC50 [2, 4] of over 50000 nM.

`COc1cc(-c2cc3c(s2)c(=O)n(-c2cncc4nc(-c5coc(C)n5)n(C)c24)c(=O)n3CCC#N)c(Cl)cc1F` [Example 757] was tested, and the IC50 [1, 3] was 11.4 nM and the EC50 [2, 4] was 40.3 nM.

In the case of `Cc1cccc(C#N)c1-c1ccc2c(=O)n(-c3cncc4ccccc34)c(=O)[nH]c2c1` [Example 96], the IC50 [1, 5] is reported as 151 nM and the EC50 [2, 4] is reported as 296 nM.

Work on `COc1cc(-c2cc3c(s2)c(=O)n(-c2cncc4cccc(F)c24)c(=O)n3CCC#N)c(C#N)cc1F` [Example 943] yielded an IC50 [1, 3] of 10.3 nM and an EC50 [2, 4] of 10 nM.

`COc1ccc(Cl)c(-c2cc3[nH]c(=O)n(-c4cncc5scc(C)c45)c(=O)c3s2)c1` (single isomer, unassigned) [Example 1053, 6-(2-chloro-5-methoxyphenyl)-3-(3-methylthieno[2,3-c]pyridin-4-yl)thieno[3,2-d]pyrimidine-2,4(1H,3H)-dione] was tested, and the IC50 [1, 3] was 83.3 nM and the EC50 ([2]; read-out: MPro EC50) was 48.5 nM.

`Cc1nc2cncc(-n3c(=O)c4sc(-c5ccc(F)cc5Cl)cc4n(CCC#N)c3=O)c2n1C` [Example 853, 3-(6-(2-chloro-4-fluorophenyl)-3-(1,2-dimethyl-1H-imidazo[4,5-c]pyridin-7-yl)-2,4-dioxo-3,4-dihydrothieno[3,2-d]pyrimidin-1(2H)-yl)propanenitrile] showed an IC50 [1, 3] of 26.8 nM and an EC50 [2, 4] of 102 nM.

`Cn1ncc2cncc(-n3c(=O)c4sc(-c5cc(F)ccc5Cl)cc4n(CCC#N)c3=O)c21` [Example 789] showed an IC50 [1, 3] of 5.82 nM and an EC50 [2, 4] of 4.8 nM.

`COc1cnc(Cl)c(-c2cc3[nH]c(=O)n(-c4cncc5ccccc45)c(=O)c3s2)c1` (single isomer, unassigned) [Example 628, 6-(2-chloro-5-methoxypyridin-3-yl)-3-(isoquinolin-4-yl)thieno[3,2-d]pyrimidine-2,4(1H,3H)-dione] was tested, and the IC50 [1, 3] was 3.26 nM and the EC50 ([2]; read-out: MPro EC50) was 15.9 nM.

Work on `N#CCCn1c(=O)n(-c2cncc3cccc(F)c23)c(=O)c2sc(-c3ccccc3Cl)cc21` [Example 1084] yielded an IC50 [1, 3] of 7.62 nM and an EC50 [2, 4] of 11.7 nM.

Work on `COc1ccc(Cl)c(-c2cc3[nH]c(=O)n(-c4cncc5ccc(N6CCOCC6)cc45)c(=O)c3cc2F)c1` [Example 434] yielded an IC50 [1, 3] of 16 nM and an EC50 [2, 6] of 33.3 nM.

For `O=c1[nH]c2cc(-c3c(Cl)cccc3-c3cncc(F)c3)ccc2c(=O)n1-c1cncc2ccccc12` [Example 207], the IC50 [1, 5] was 17.6 nM and the EC50 [2, 4] was 13.6 nM.

`COc1ccc(Cl)c(-c2ccc3c(=O)n(-c4cncc5cccnc45)c(=O)[nH]c3c2)c1` [Example 462, 7-(2-chloro-5-methoxyphenyl)-3-(1,6-naphthyridin-8-yl)quinazoline-2,4(1H,3H)-dione] was tested, and the IC50 [1, 3] was 28.4 nM and the EC50 [2, 4] was 61.5 nM.

In the case of `O=c1[nH]c2cc(-c3ccccc3Cl)sc2c(=O)n1-c1cncc2ccc(N3CC4(C3)CC(F)(F)C4)cc12` [Example 419], the IC50 [1, 3] is reported as 21.1 nM and the EC50 [2, 4] is reported as 74.9 nM.

In the case of `COc1ccc(Cl)c(-c2cc3[nH]c(=O)n(-c4cncc5ccc(C)nc45)c(=O)c3s2)c1` [Example 459], the IC50 [1, 3] is reported as 18.1 nM and the EC50 [2, 4] is reported as 20.2 nM.

For `Cn1ncc2cncc(-n3c(=O)[nH]c4cc(-c5ccc(F)cc5Cl)sc4c3=O)c21` [Example 662], the IC50 [1, 3] was 40.5 nM and the EC50 [2, 4] was 81.7 nM.

`COc1cc(-c2cc3c(s2)c(=O)n(-c2cncc4ccccc24)c(=O)n3CC2(C#N)CCC2)c(Cl)cc1F` [Example 690] showed an IC50 [1, 3] of 47 nM and an EC50 [2, 4] of 98.8 nM.

For `COc1ccc(Cl)c(-c2cc3[nH]c(=O)n(-c4cncc5sc(C(N)=O)c(C)c45)c(=O)c3s2)c1` [Example 1048, 4-(6-(2-chloro-5-methoxyphenyl)-2,4-dioxo-1,4-dihydrothieno[3,2-d]pyrimidin-3(2H)-yl)-3-methylthieno[2,3-c]pyridine-2-carboxamide], the IC50 [1, 3] was 5.23 nM and the EC50 [2, 6] was 9.86 nM.

For `COc1cc(-c2cc3c(s2)c(=O)n(-c2cncc4ccccc24)c(=O)n3CCC#N)c(C#N)cc1F` [Example 1001, 2-(1-(2-cyanoethyl)-3-(isoquinolin-4-yl)-2,4-dioxo-1,2,3,4-tetrahydrothieno[3,2-d]pyrimidin-6-yl)-5-fluoro-4-methoxybenzonitrile], the IC50 [1, 3] was 5.04 nM and the EC50 [2, 4] was 3.11 nM.

`COc1cc(-c2cc3c(s2)c(=O)n(-c2cncc4[nH]nc(C)c24)c(=O)n3CCC#N)c(Cl)cc1F` [Example 768, 3-(6-(2-chloro-4-fluoro-5-methoxyphenyl)-3-(3-methyl-1H-pyrazolo[3,4-c]pyridin-4-yl)-2,4-dioxo-3,4-dihydrothieno[3,2-d]pyrimidin-1(2H)-yl)propanenitrile] was tested, and the IC50 [1, 3] was 5.26 nM and the EC50 [2, 4] was 7.16 nM.

Work on `COc1cc(-c2cc3c(s2)c(=O)n(-c2cnccc2C)c(=O)n3CCC#N)c(Cl)cc1F` (single isomer, unassigned) [Example 1030, 3-[6-(2-chloro-4-fluoro-5-methoxy-phenyl)-3-(4-methyl-3-pyridyl)-2,4-dioxo-thieno[3,2-d]pyrimidin-1-yl]propanenitrile] yielded an IC50 [1, 3] of 4.5 nM and an EC50 ([2]; read-out: MPro EC50) of 9.72 nM.

With `Cc1cc(-c2cccc(Cl)c2-c2ccc3c(=O)n(-c4cncc5ccccc45)c(=O)[nH]c3c2)ccn1` [Example 331] the IC50 [1, 5] was 10.4 nM and the EC50 [2, 4] was 17 nM.

`COc1cccc(C(N)=O)c1-c1ccc2c(=O)n(-c3cncc4ccccc34)c(=O)[nH]c2c1` [Example 72] showed an IC50 [1, 5] of 8200 nM and an EC50 [2, 4] of over 50000 nM.

For `COc1cc(-c2cc3c(s2)c(=O)n(-c2cncc4cnn(C)c24)c(=O)n3C)c(Cl)cc1F` [Example 898, 6-(2-chloro-4-fluoro-5-methoxyphenyl)-1-methyl-3-(1-methyl-1H-pyrazolo[4,3-c]pyridin-7-yl)thieno[3,2-d]pyrimidine-2,4(1H,3H)-dione], the IC50 [1, 3] was 13 nM and the EC50 [2, 4] was 11.9 nM.

Work on `Cn1cc(-c2cccc(Cl)c2-c2cc3[nH]c(=O)n(-c4cncc5ccccc45)c(=O)c3s2)c(C(F)(F)F)n1` (single isomer, unassigned) [Example 448, 6-(2-chloro-6-(1-methyl-3-(trifluoromethyl)-1H-pyrazol-4-yl)phenyl)-3-(isoquinolin-4-yl)thieno[3,2-d]pyrimidine-2,4(1H,3H)-dione] yielded an IC50 [1, 3] of 383 nM and an EC50 ([2]; read-out: MPro EC50) of 382 nM.

For `N#CCCn1c(=O)n(-c2cncc3ccccc23)c(=O)c2sc(-c3ccccc3C#N)cc21` (single isomer, unassigned) [Example 964, 2-(1-(2-cyanoethyl)-3-(isoquinolin-4-yl)-2,4-dioxo-1,2,3,4-tetrahydrothieno[3,2-d]pyrimidin-6-yl)benzonitrile], the IC50 [1, 3] was 62.5 nM and the EC50 ([2]; read-out: MPro EC50) was 87 nM.

Work on `NC(=O)c1ccc(-c2cccc(Cl)c2-c2ccc3c(=O)n(-c4cncc5ccccc45)c(=O)[nH]c3c2)cc1` [Example 149, 4-[3-chloro-2-[3-(4-isoquinolyl)-2,4-dioxo-1H-quinazolin-7-yl]phenyl]benzamide] yielded an IC50 [1, 5] of 19.2 nM and an EC50 [2, 4] of 40.2 nM.

In the case of `CCc1ccncc1-n1c(=O)[nH]c2cc(-c3ccccc3Cl)ccc2c1=O` [Example 124], the IC50 [1, 5] is reported as 948 nM and the EC50 [2, 4] is reported as 2220 nM.

`COc1ccc(Cl)c(-c2cc3[nH]c(=O)n(-c4cncc5ccccc45)c(=O)c3s2)c1` (single isomer, unassigned) [Example 466, 6-(2-chloro-5-methoxyphenyl)-3-(isoquinolin-4-yl)thieno[3,2-d]pyrimidine-2,4(1H,3H)-dione] gave an IC50 [1, 3] of 156 nM and an EC50 ([2]; read-out: MPro EC50) of 152 nM.

`COc1cc(-c2ccc3c(=O)n(-c4cncc5ccccc45)c(=O)n(CCC#N)c3c2)c(Cl)cc1F` [Example 949] was tested, and the IC50 [1, 3] was 147 nM and the EC50 [2, 4] was 757 nM.

In the case of `COc1ccc(Cl)c(-c2cc3[nH]c(=O)n(-c4cncc5nc(C(F)(F)F)sc45)c(=O)c3s2)c1` [Example 487], the IC50 [1, 3] is reported as 908 nM and the EC50 [2, 4] is reported as 742 nM.

`O=c1[nH]c2cc(-c3cccnc3Cl)sc2c(=O)n1-c1cncc2ccccc12` [Example 22] gave an IC50 [1, 5] of 37.1 nM and an EC50 [2, 4] of 120 nM.

— patent US20240116946A1 (Gilead Sciences, Inc., priority 2022, published 2024)
